# Measurements: patent US20080176787A1, “Parathyroid hormone analogues and methods of use” (priority 2005, published 2008)
# Like-named read-outs stand apart in the source and are kept apart here. Positions of bridges follow the written chain, without caps; N, C: chain ends. Residues, ends and D or L forms follow the SMILES beside them.
# Assays:
# [1] = test system: post-menopausal women with low bone mineral density; assay: Dose/weight cutoff subgroup analysis and modeling of Phase II 30 and 45 μg cohorts; format: in vivo, human; details: for Headache / HyperCa > 2.65 / HyperCa > 2.75 / N + H / Nausea: unit assumed
# Method: The effect of the dose optimization strategy was evaluated by performing subgroup analyses using actual data from the 30 and 45 μg cohorts of the study (i.e. creation of a new subgroup by combining all patients below the weight cutoff from the 30 μg dose group with all patients above the weight cutoff from the 45 μg dose group, shown in the table below).
# A variety of new subgroups were created out of the patients who participated in the Phase II clinical trial. The groups from Phase II are shown above, where each group received a single dose, either 7.5 μg, 15 μg, 30 μg, 45 μg, or placebo. The 30 μg and 45 μg dose groups were re-grouped, according to the weight of the patient, and over 100 new sub-groups were created. This approach of creating new sub-groups out of dosages which are relatively close to each other, is a novel way of conducting Phase II studies.
# For the 105 patients who were originally given 30 or 45 μg, new groups were created by utilizing multiple weight cut-offs in increments of 0.5 kg. For example, one new group had the weight cut-off at 59 kg, meaning that every patient from the original low dose (30 μg) group who weighed less than 59 kg and every patient who weighed more than 59 kg from the original high dose (45 μg) group formed a new cohort. This new cohort represents a dose/weight cut-off of 59 kg, a group in which patients weighing less than 59 kg receive the low dose (30 μg) and patients weighing more than 59 kg receive the high dose (45 μg). Another example can be illustrated using a weight cutoff of 68 kg. Such a group would include all those patients who weigh less than 68 kg and who originally received the low dose (30 μg) as well as all those patients who weigh more than 68 kg and who originally received the high dose (45 μg). By using this method, over 100 separate cohorts were created by altering the dose/weight cut-off in increments of 0.5 kg. A summary of the data generated by these new dose/weight cut-off cohorts, using 68 kg and 59 kg as the dose/weight cut-off, is shown in the table below.
# The table above illustrates the actual clinical profile obtained for two dose/weight cutoffs (59 kg which produces a higher exposure profile since more patients receive the higher dose and 68 kg in which more patients receive the lower dose). […] One problem with simple subgroup analysis is that endpoints with a small number of events can skew the observed profile because of large changes in incidence when one of these events moves from one side of the weight cutoff to the other. Therefore, the dose/weight cutoff methodology was applied systematically to the data from the 30 and 45 μg dose groups starting at the lowest weight patient in the study (corresponds to the 45 μg profile because everyone receives the high dose) and increasing the cutoff by 0.5 kg increments through 100 kg (corresponding to the 30 μg profile because everyone receives the low dose). The multiple cutoff profiles thus obtained when graphed can then smooth out the effect of individual events as illustrated for the effect on hypercalcemia. The effect of weight cutoff on clinical profile can then be modeled to eliminate the skewing effects of individual data points as illustrated in FIG. 37-40. This approach has been applied to primary and secondary endpoints in the study.
# An important benefit of this modeling is that it is possible to project a clinical profile for a specific weight cutoff/dose exposure window with a high degree of accuracy since the effect of individual events is eliminated. The anticipated hypercalcemia and lumbar spine BMD profile for a 68 kg cutoff is illustrated in the table below, which compares the modeled hypercalcemia and lumbar spine BMD changes and the actual Phase II data for the 68 kg weight cutoff. It will also be possible to model the effects of even narrower exposure windows by using multiple dose cutoffs and different doses.
# [2] = Plasma pharmacokinetics of Ostabolin-C formulations in female rats, single 200 μg/kg SC, IM, IV; format: in vivo; details: rat; for Vd: iv
# Method: Formulations were prepared once only as follows: The bulk freeze-dried peptide was dissolved in 0.01 M acetic acid (supplied by Fisher Scientific, Loughborough, UK) in a 1:1 ratio, re-aliquotted into dosing vials and deep frozen (approximately −70° C.). The vials were freeze-dried at <−20° C. and stored frozen until required. The freeze-dried aliquots for injection were re-constituted with water for injection (supplied by Animalcare Ltd, York, UK). The peptide was dissolved in an appropriate volume of purified water to an approximate concentration of 2 to 3 mg/mL. Phosphate buffered saline (pH 7.4) was added to give the final required concentration (at approximately pH 7.2). The capped vial(s) were mixed thoroughly to ensure the peptide was fully dissolved. Aseptic techniques and glass vials were used throughout dose preparation. The dose was not sterile filtered. […] The calculated amounts of mannitol, sodium acetate trihydrate and glacial acetic acid were weighed and then dissolved in the correct amount of water for injection. The test article was weighed, added to the solution and stirred to dissolve. The pH was adjusted to 4.5 with 0.1N NaOH or HCl (supplied by Covance, Harrogate) depending on initial pH. Water was added to obtain the required volume.
# The calculated amount of lipoic acid was weighed and transferred to a suitable container and then dispersed with water for injection. The pH was adjusted to 7.7 with 1N NaOH (supplied by BDH Laboratory Supplies, a division of Merck Ltd, Poole, UK). The test article was weighed, added and stirred to dissolve. The pH was adjusted to 7.5 with 1N NaOH. Propylene glycol was added to obtain the correct volume.
# The calculated amount of DL-Methionine was weighed and transferred to a suitable container and dispersed in water for injection. The test article was weighed and added to the solution. The pH was adjusted to 7.5 with 0.1N NaOH. Ethanol was added to make the required volume.
# [3] = test system: post-menopausal women with low bone mineral density; details: human, in vivo
# Excerpt: A four month Phase II clinical study was undertaken to investigate the safety, tolerability and efficacy of Ostabolin-C™ in post-menopausal women with low bone mineral density (BMD). […] The clinical protocol is a 16-week phase II randomized, double-blind, placebo-controlled, parallel group, dose finding study to investigate the safety, tolerability and efficacy of Ostabolin-C™ in post-menopausal women with low bone mineral density (BMD). In this study, 261 patients underwent four months of daily dosing of placebo and four active groups. The active groups included daily administration of Ostabolin-C™ in doses of 7.5, 15, 30, and 45 μg. Ostabolin-C™ is formulated as a clear, colorless liquid provided in pre-filled syringes and injected subcutaneously (SC). Subjects self-administer SC 0.1 mL injections of their assigned dose of Ostabolin-C™ 7.5, 15, 30, and 45 μg or placebo daily for 16 weeks in rotating quadrants of the abdomen. The subjects were post-menopausal women (for at least 5 years) with moderate osteoporosis.
# The key endpoints for the study include change in mean BMD at the lumbar spine, as assessed by dual energy x-ray absorptiometry (DEXA), and measured by change from the Baseline visit. The Baseline visit is the first visit of the patient, before undergoing any treatment. Secondary efficacy endpoints include the following, as measured by change from Baseline visit:
# DEXA: Bone formation and resorption markers: • Mean femoral neck BMD • Serum osteocalcin • Mean trochanter BMD • Serum amino terminal pro-peptide of type 1 pro-collagen (P1NP) • Mean total hip BMD • Mean radial BMD (distal and midshaft) • Bone specific alkaline phosphatase (BSAP) • Bone mineral content (BMC) • Serum C-telopeptide (CTx) • Bone area • Serum N-telopeptide (NTx)
smiles,measurement,setting,value
"CC[C@H](C)[C@H](NC(=O)[C@H](CCC(=O)O)NC(=O)[C@H](CO)NC(=O)[C@@H](NC(=O)[C@@H](N)CO)C(C)C)C(=O)N[C@@H](CCC(N)=O)C(=O)N[C@@H](CC(C)C)C(=O)N[C@@H](CCSC)C(=O)N[C@@H](Cc1c[nH]cn1)C(=O)N[C@@H](CC(N)=O)C(=O)N[C@@H](CC(C)C)C(=O)NCC(=O)N[C@@H](CCCCN)C(=O)N[C@@H](Cc1c[nH]cn1)C(=O)N[C@@H](CC(C)C)C(=O)N[C@@H](CC(N)=O)C(=O)N[C@@H](CO)C(=O)N[C@@H](CCSC)C(=O)N[C@@H](CCC(=O)O)C(=O)N[C@@H](CCCN=C(N)N)C(=O)N[C@H](C(=O)N[C@H]1CCC(=O)NCCCC[C@@H](C(=O)N[C@@H](CC(C)C)C(=O)N[C@@H](CC(C)C)C(=O)N[C@@H](CCC(N)=O)C(=O)N[C@@H](CC(=O)O)C(=O)N[C@H](C(N)=O)C(C)C)NC(=O)[C@H](CCCN=C(N)N)NC(=O)[C@H](CC(C)C)NC(=O)[C@H](Cc2c[nH]c3ccccc23)NC1=O)C(C)C [Ostabolin-C, [Leu^27]cyclo[Glu^22-Lys^26]-PTH-(1-31)-NH2] (H-SVSEIQLMHNLGKHLNSMERVEWLRKLLQDV-NH2; lactam 22-26)",% of hypercalcemia,"[1]; 4 months, weight cutoff of approximately 68 kg (FIG. 37)",less than 15%
same,Sitting HR,[1]; 59 kg cut,4.1
same,Headache,[1]; 59 kg cut,20.6%
same,HyperCa > 2.65,[1]; 59 kg cut,22%
same,HyperCa > 2.75,[1]; 59 kg cut,6%
same,N + H,[1]; 59 kg cut,12.7%
same,Nausea,[1]; 59 kg cut,31.7%
same,Sitting HR,[1]; 68 kg cut,3.1
same,Headache,[1]; 68 kg cut,12.8%
same,HyperCa > 2.65,[1]; 68 kg cut,12.8%
same,HyperCa > 2.75,[1]; 68 kg cut,7.7%
same,N + H,[1]; 68 kg cut,10.6%
same,Nausea,[1]; 68 kg cut,31.9%
same,HyperCa > 2.65,"[1]; 68 kg cutoff, modeled",14.8%
same,HyperCa > 2.75,"[1]; 68 kg cutoff, modeled",7.6%
same,bioavailability,"[2]; female, 200 ug/kg, IM, read-out: Absolute bioavailability",8.7%
same,level at 2 min,"[2]; female, 200 ug/kg, IV, not quantified, read-out: plasma concentrations at 2 minutes post the end of the infusion",> 610 ng/mL
same,bioavailability,"[2]; female, 200 ug/kg, SC, read-out: Absolute bioavailability (Fabs)",< 2%
same,Vd,"[2]; female, 200 ug/kg, IV, female rats, read-out: Vss",0.479 L/kg
same,Vd,"[2]; female, 200 ug/kg, IV, female rats, read-out: Vz",0.471 L/kg
same,half-life,"[2]; female, other: SC, 200 ug/kg, SC, IM and IV dose routes, read-out: terminal elimination half life, where calculable",7.2 to 42.4 min
same,clearance,"[2]; 200 ug/kg, IV, female rats",45.4 mL/min/kg
same,Tmax,"[2]; IV, female rats, post end of infusion",5 min
same,Pts > 2.75 mmol/L (sustained),[3],0
